# Source: ChEMBL document CHEMBL3272256, “Antimalarials. 11. 2-Vinylogs of substituted 2-aryl-4-quinoline amino alcohols” (J Med Chem, 1976)
# Calls of active or inactive are those of the source. The calls are words filed in the database; no cut-off is given here.
# Experiments:
# Assay type in all cases: functional, organism-based
# [1] = tested on: Plasmodium berghei; test: Antimalarial activity against Plasmodium berghei infected in mouse assessed as complete cure at 160 mg/kg; set-up: dose 160 mg/kg
# [2] = tested on: Plasmodium berghei; test: Antimalarial activity against Plasmodium berghei infected in mouse at 20 mg/kg; set-up: dose 20 mg/kg
# [3] = tested on: Plasmodium berghei; test: Antimalarial activity against Plasmodium berghei infected in mouse assessed as complete cure at 40 mg/kg; set-up: dose 40 mg/kg
# [4] = tested on: Plasmodium berghei; test: Antimalarial activity against Plasmodium berghei infected in mouse at 10 mg/kg; set-up: dose 10 mg/kg
SMILES,Activity [1],Activity [2],Activity [3],Activity [4]
CCCCN(CCCC)CC(O)c1cc(/C=C/c2ccc(Cl)cc2)nc2c(C)cc(C)cc12 (stereo not given),Active,Active,,
CCCCN(CCCC)CC(O)c1c2c(nc3c(C)cc(C)cc13)/C(=C/c1ccc(Cl)cc1)CC2 (stereo not given),,,Active,Active
Cc1cc(C)c2nc3c(c([C@H]4OC(c5ccc(Cl)cc5)N5CCCC[C@H]45)c2c1)CCC3 (mixture of isomers),,,inactive,
